The target of data set [1] is T1, human neutrophil elastase (HNE) (Homo sapiens, UniProt P08246).
T1 sequence (P08246 30-267): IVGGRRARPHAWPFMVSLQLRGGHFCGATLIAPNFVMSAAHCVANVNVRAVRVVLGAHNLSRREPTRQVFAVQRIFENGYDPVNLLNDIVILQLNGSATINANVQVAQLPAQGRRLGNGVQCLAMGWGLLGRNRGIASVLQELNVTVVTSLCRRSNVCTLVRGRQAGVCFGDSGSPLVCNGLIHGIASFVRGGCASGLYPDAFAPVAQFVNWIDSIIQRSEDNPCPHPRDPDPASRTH
Nature of the data set: HNE Ki of CE compounds, tested as described in WO 96/16080. The data set is classed as biochemical. Particulars: read-out: HNE Ki.

Data set [2] is described as follows: Blood level screening after oral dose. Particulars: rat, oral gavage 10 mg/kg; for concentration at 1 h / concentration at 3 h / concentration at 6 h: male, Sprague-Dawley, plasma; for concentration at 1 h: read-out: Plasma Levels (μM) 1 hr; for concentration at 3 h: read-out: Plasma Levels (μM) 3 hr; for concentration at 6 h: read-out: Plasma Levels (μM) 6 hr. Type of data set: in vivo, Sprague-Dawley rats. The essentials:
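Unfasted male Sprague-Dawley rats received 10 mg/kg by oral gavage in PEG, PEG-400 or PEG:H2O:EtOH. Plasma was solvent-extracted and the inhibitor measured by HPLC or LC/MS.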

Data set [3] concerns polymorphoneucleocyte (PMN). Nature of the data set: Extracellular Matrix (ECM) degradation assay. Type of data set: cell-based. Particulars: PMN's stimulated with opsonized zymosan, 4 hr at 37° C.; for inhibition at 1 µM / ECM DATA % Inhibition 1 uM: 1 uM inhibitor; for inhibition at 5 µM / ECM DATA % Inhibition 5 uM: 5 uM inhibitor. The essentials: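 Radiolabelled ([35S]sulfate/[3H]proline) ECM from R22 rat smooth muscle cells preincubated 30 min with 1 or 5 uM inhibitor in HBSS (<2% DMSO). PMNs (5×10^5/well) stimulated with serum-opsonized zymosan (10 particles/PMN), 4 h at 37 °C. Degradation = released over total ECM counts, minus PMN-free basal release.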

Regarding `Cc1cccc(Cc2nnc(C(=O)[C@@H](NC(=O)CN3C(=O)CN=C(c4ccc(C(F)(F)F)cc4)c4ccccc43)C(C)C)o2)c1` [CE2237, 2-Oxo-5-(4-trifluoromethylphenyl)-1,4 benzodiazepine-N-[1-(2-[5-(3-methylbenzyl)-1,3,4-oxadiazolyl]carbonyl)-2-(S)-methylpropyl]acetamide], the Ki (commonly a dissociation constant, usually derived from enzyme kinetics or from competition with a known ligand) in data set [1] stood at 3 nM. Also, in data set [2], the concentration at 1 h turned out to be 1.02 µM, the concentration at 3 h was determined as 1.8 µM and the concentration at 6 h turned out to be 0.84 µM. In data set [3], the inhibition (commonly how much of the control response was suppressed) at 1 µM was found to be 34.6% and the inhibition at 5 µM came to 42.6%.
Take `Cc1cccc(Cc2nnc(C(=O)[C@@H](NC(=O)CN3C(=O)CNC3=O)C(C)C)o2)c1` [CE2238, 2,5-Imidazolidinedione-N-[1-(2-[5-(3-methylbenzyl)-1,3,4-oxadiazolyl]carbonyl)-2-(S)-methylpropyl]acetamide]: the Ki in data set [1] stood at 162 nM. Also, in data set [2], the concentration at 1 h stood at 2.57 µM, the concentration at 3 h turned out to be 1.74 µM and the concentration at 6 h was determined as 1.03 µM. In addition, in data set [3], 1 µM produced 10.1% inhibition and testing at 5 µM gave an inhibition of 18.8%.
Turning to `Cc1cccc(Cc2nnc(C(=O)[C@@H](NC(=O)CN3C(=O)NC(C)(C)C3=O)C(C)C)o2)c1` [CE2239, 4,4-Dimethyl-2,5-imidazolidinedione-N-[1-(2-[5-(3-methylbenzyl)-1,3,4-oxadiazolyl]carbonyl)-2-(S)-methylpropyl]acetamide], in data set [1], the Ki came to 43 nM. For the same molecule, in data set [2], the “Plasma Levels (μM) 1 hr” value was found to be 1.46 µM, the “Plasma Levels (μM) 3 hr” value was found to be 1.15 µM and the “Plasma Levels (μM) 6 hr” value stood at 0.71 µM. Besides, in data set [3], the “ECM DATA % Inhibition 1 uM” value worked out at 11.9% and the “ECM DATA % Inhibition 5 uM” value is listed as 11.3%.
For `Cc1cccc(Cc2nnc(C(=O)[C@@H](NC(=O)CN3C(=O)N[C@@H](C(C)C)C3=O)C(C)C)o2)c1` [CE2240, 4-(S)-(2-Isopropyl)-2,5-imidazolidinedione-N-[1-(2-[5-(3-methylbenzyl)-1,3,4-oxadiazolyl]carbonyl)-2-(S)-methylpropyl]acetamide], in data set [1], the Ki came out at 30 nM. For the same molecule, in data set [2], the “Plasma Levels (μM) 1 hr” value was determined as 1.12 µM, the “Plasma Levels (μM) 3 hr” value was found to be 0.5 µM and the “Plasma Levels (μM) 6 hr” value came to 0.29 µM. In data set [3], the “ECM DATA % Inhibition 1 uM” value is reported as 16.8% and the “ECM DATA % Inhibition 5 uM” value stood at 13.5%.
For the molecule `Cc1cccc(Cc2nnc(C(=O)[C@@H](NC(=O)CN3C(=O)NC4(CCCCC4)C3=O)C(C)C)o2)c1` [CE2241, 4-Spirocyclohexane-2,5-imidazolidinedione-N-[1-(2-[5-(3-methylbenzyl)-1,3,4-oxadiazolyl]carbonyl)-2-(S)-methylpropyl]acetamide], the Ki in data set [1] worked out at 14 nM. Also, in data set [2], the “Plasma Levels (μM) 1 hr” value stood at 0.598 µM, the “Plasma Levels (μM) 3 hr” value is 0.289 µM and the “Plasma Levels (μM) 6 hr” value is 0.078 µM. Further, in data set [3], the “ECM DATA % Inhibition 1 uM” value was found to be 18.6% and the “ECM DATA % Inhibition 5 uM” value is 31.7%.
For `Cc1cccc(Cc2nnc(C(=O)[C@@H](NC(=O)CN3C(=O)N[C@H](Cc4c[nH]c5ccccc45)C3=O)C(C)C)o2)c1` [CE2243, 4-(R)-(3-Indolemethylene)-2,5-imidazolidinedione-N-[1-(2-[5-(3-methylbenzyl)-1,3,4-oxadiazolyl]carbonyl)-2-(S)-methylpropyl]acetamide], the Ki in data set [1] worked out at 11 nM. Besides, in data set [2], the “Plasma Levels (μM) 1 hr” value came out at 2.801 µM, the “Plasma Levels (μM) 3 hr” value came to 2.104 µM and the “Plasma Levels (μM) 6 hr” value turned out to be 1.598 µM. Further, in data set [3], the “ECM DATA % Inhibition 1 uM” value amounted to 48% and the “ECM DATA % Inhibition 5 uM” value is on record as 54.9%.
As for `Cc1cccc(Cc2nnc(C(=O)[C@@H](NC(=O)CN3C(=O)N[C@H](CC(C)C)C3=O)C(C)C)o2)c1` [CE2246, 4-(R)-(2-Isobutyl)-2,5-imidazolidinedione-N-[1-(2-[5-(3-methylbenzyl)-1,3,4-oxadiazolyl]carbonyl)-2-(S)-methylpropyl]acetamide], the Ki in data set [1] stood at 18.5 nM. In data set [2], the “Plasma Levels (μM) 1 hr” value was found to be 1.182 µM, the “Plasma Levels (μM) 3 hr” value worked out at 0.837 µM and the “Plasma Levels (μM) 6 hr” value is 0.496 µM. Besides, in data set [3], the “ECM DATA % Inhibition 1 uM” value is listed as −2.3% and the “ECM DATA % Inhibition 5 uM” value amounted to 32.6%.
For the molecule `Cc1cccc(Cc2nnc(C(=O)[C@@H](NC(=O)CN3C(=O)N[C@H](CC(=O)N(C)C)C3=O)C(C)C)o2)c1` [CE2247, 4-(R)-(2-N,N-Dimethylcarboxamido)-2,5-imidazolidinedione-N-[1-(2-[5-(3-methylbenzyl)-1,3,4-oxadiazolyl]carbonyl)-2-(S)-methylpropyl]acetamide], in data set [1], the Ki was 62.4 nM. Also, in data set [2], the “Plasma Levels (μM) 1 hr” value was 1.017 µM, the “Plasma Levels (μM) 3 hr” value came to 0.572 µM and the “Plasma Levels (μM) 6 hr” value is 0.186 µM. In addition, in data set [3], the “ECM DATA % Inhibition 1 uM” value worked out at 13.3% and the “ECM DATA % Inhibition 5 uM” value worked out at 21.2%.
As for `Cc1cccc(Cc2nnc(C(=O)[C@@H](NC(=O)CN3C(=O)CN=C(c4ccc5c(c4)OCO5)c4ccccc43)C(C)C)o2)c1` [CE2248], the Ki in data set [1] amounted to 3.1 nM. Also, in data set [2], the “Plasma Levels (μM) 1 hr” value was found to be 1.65 µM, the “Plasma Levels (μM) 3 hr” value was 1.58 µM and the “Plasma Levels (μM) 6 hr” value stood at 1.22 µM. In data set [3], the “ECM DATA % Inhibition 1 uM” value is recorded as 39.4% and the “ECM DATA % Inhibition 5 uM” value is recorded as 63.2%.
As for `COC(=O)CCC[C@H]1NC(=O)N(CC(=O)N[C@H](C(=O)c2nnc(Cc3cccc(C)c3)o2)C(C)C)C1=O` [CE2249, 4-(R)-(3-Carbomethoxy)propyl-2,5-imidazolidinedione-N-[1-(2-[5-(3-methylbenzyl)-1,3,4-oxadiazolyl]carbonyl)-2-(S)-methylpropyl]acetamide], in data set [1], the Ki was determined as 13 nM. For the same molecule, in data set [2], the “Plasma Levels (μM) 1 hr” value is 1.179 µM, the “Plasma Levels (μM) 3 hr” value came out at 0.704 µM and the “Plasma Levels (μM) 6 hr” value was found to be 0.213 µM. In data set [3], the “ECM DATA % Inhibition 1 uM” value amounted to 22.4% and the “ECM DATA % Inhibition 5 uM” value stood at 42.4%.
On to `Cc1cccc(Cc2nnc(C(=O)[C@@H](NC(=O)Cn3c(-c4ccc(F)cc4)ccc(N)c3=O)C(C)C)o2)c1` [CE2251, 2-[5-Amino-6-oxo-2-(4-fluorophenyl)-1,6-dihydro-1-pyridinyl]-N-[1-(2-[5-(3-methylbenzyl)-1,3,4-oxadiazolyl]carbonyl)-2-(S)-methylpropyl]acetamide], for which the Ki in data set [1] is 0.43 nM. For the same molecule, in data set [2], the “Plasma Levels (μM) 1 hr” value was 1.63 µM, the “Plasma Levels (μM) 3 hr” value amounted to 1.11 µM and the “Plasma Levels (μM) 6 hr” value worked out at 0.73 µM. In data set [3], the “ECM DATA % Inhibition 1 uM” value was determined as 54.1% and the “ECM DATA % Inhibition 5 uM” value is recorded as 74.5%.
As for `Cc1cccc(Cc2nnc(C(=O)[C@@H](NC(=O)CN3C(=O)NC(c4ccccc4)(c4ccccc4)C3=O)C(C)C)o2)c1` [CE2252, 4,4-Diphenyl-2,5-imidazolidinedione-N-[1-(2-[5-(3-methylbenzyl)-1,3,4-oxadiazolyl]carbonyl)-2-(S)-methylpropyl]acetamide], the Ki in data set [1] turned out to be 1.9 nM. Besides, in data set [2], the “Plasma Levels (μM) 1 hr” value was 0.114 µM, the “Plasma Levels (μM) 3 hr” value turned out to be 0.188 µM and the “Plasma Levels (μM) 6 hr” value is 0.1 µM. Besides, in data set [3], the “ECM DATA % Inhibition 1 uM” value is 45.4% and the “ECM DATA % Inhibition 5 uM” value worked out at 65.2%.
With `Cc1cccc(Cc2nnc(C(=O)[C@@H](NC(=O)CN3C(=O)NC4(Cc5ccccc5C4)C3=O)C(C)C)o2)c1` [CE2253, 4-Spiro-(2-indanyl)-2,5-imidazolidinedione-N-[1-(2-[5-(3-methylbenzyl)-1,3,4-oxadiazolyl]carbonyl)-2-(S)-methylpropyl]acetamide], the Ki in data set [1] came to 11 nM. In addition, in data set [2], the concentration at 1 h was 0.282 µM, the concentration at 3 h amounted to 0.246 µM and the concentration at 6 h amounted to 0.163 µM. Also, in data set [3], testing at 1 µM gave an inhibition of 31.9% and the inhibition at 5 µM stood at 45.9%.
With `CC(C)[C@H](NC(=O)CN1C(=O)N[C@H](Cc2ccc(O)cc2)C1=O)C(=O)c1nnc(Cc2ccc3c(c2)OCO3)o1` [CE2256, 4-(R)-(4-Hydroxybenzyl)-2,5-imidazolidinedione-N-[1-(2-[5-(3,4-methylenedioxybenzyl)-1,3,4-oxadiazolyl]carbonyl)-2-(S)-methylpropyl]acetamide], the Ki in data set [1] came out at 16 nM. In addition, in data set [2], the “Plasma Levels (μM) 1 hr” value is 0.9 µM, the “Plasma Levels (μM) 3 hr” value was found to be 0.33 µM and the “Plasma Levels (μM) 6 hr” value is 0.2 µM. For the same molecule, in data set [3], the “ECM DATA % Inhibition 1 uM” value came out at 24% and the “ECM DATA % Inhibition 5 uM” value was determined as 47.8%.
